Data from US12077503B2, “Substituted cyclic amides and their use as herbicides” (FMC CORPORATION, priority 2015, dated 2024).

Tests used:
Assay type in all cases: in vivo
[1] = test system: barnyardgrass (Echinochloa crus-galli); test: Test G Post-Emergence Protocol; details: Echinochloa crus-galli, post-emergence, 312 h; for pest or weed control at 15.625 g/ha: 15.625 g ai/ha, evaluated after 13 days (100=total damage to plant; 0=no damage to plant), read-out: Barnyardgrass damage rating; for pest or weed control at 62.5 g/ha: 62.5 g ai/ha, read-out: Barnyardgrass damage rating (100=total damage to plant; 0=no damage to plant); for pest or weed control at 62.5 g/ha / pest or weed control at 250 g/ha: evaluated after 13 days; for pest or weed control at 250 g/ha: 250 g ai/ha, read-out: damage to plant, Barnyardgrass (100=total damage to plant; 0=no damage to plant)
In short: (§1)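 A glasshouse post-emergence test: 8-day-old plants sprayed at 15.625, 62.5 or 250 g/ha, then grown at 24/16 °C day/night with 14 h light and 65% humidity. Damage rated 13 days later, 0–100.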

[2] = test system: ivy-leaved morning glory (Ipomoea hederacea); test: Test G Post-Emergence Protocol; details: Ipomoea, post-emergence, 312 h; for pest or weed control at 15.625 g/ha: 15.625 g ai/ha, evaluated after 13 days (100=total damage to plant; 0=no damage to plant), read-out: Morningglory, Ivy-leaved damage rating; for pest or weed control at 62.5 g/ha: 62.5 g ai/ha, read-out: Morningglory, Ivy-leaved damage rating (100=total damage to plant; 0=no damage to plant); for pest or weed control at 62.5 g/ha / pest or weed control at 250 g/ha: evaluated after 13 days; for pest or weed control at 250 g/ha: 250 g ai/ha, read-out: damage to plant, Morningglory, Ivy-leaved (100=total damage to plant; 0=no damage to plant)
In short: as §1

[3] = test system: giant foxtail (Setaria faberi); test: Test G Post-Emergence Protocol; details: Setaria faberi, post-emergence, 312 h; for pest or weed control at 15.625 g/ha: 15.625 g ai/ha, evaluated after 13 days (100=total damage to plant; 0=no damage to plant), read-out: Foxtail, Giant damage rating; for pest or weed control at 62.5 g/ha: 62.5 g ai/ha, read-out: Foxtail, Giant damage rating (100=total damage to plant; 0=no damage to plant); for pest or weed control at 62.5 g/ha / pest or weed control at 250 g/ha: evaluated after 13 days; for pest or weed control at 250 g/ha: 250 g ai/ha, read-out: damage to plant, Foxtail, Giant (100=total damage to plant; 0=no damage to plant)
In short: as §1

corn (Zea mays) [4] = test: Test G Post-Emergence Protocol; details: Zea mays, post-emergence, 312 h; for plant injury at 15.625 g/ha: 15.625 g ai/ha, evaluated after 13 days (100=total damage to plant; 0=no damage to plant), read-out: Corn damage rating; for plant injury at 62.5 g/ha: 62.5 g ai/ha, read-out: Corn damage rating (100=total damage to plant; 0=no damage to plant); for plant injury at 62.5 g/ha / plant injury at 250 g/ha: evaluated after 13 days; for plant injury at 250 g/ha: 250 g ai/ha, read-out: damage to plant, Corn (100=total damage to plant; 0=no damage to plant)
In short: as §1

[5] = test system: redroot pigweed (Amaranthus retroflexus); test: Test G Post-Emergence Protocol; details: Amaranthus retroflexus, post-emergence, 312 h; for pest or weed control at 15.625 g/ha: 15.625 g ai/ha, evaluated after 13 days (100=total damage to plant; 0=no damage to plant), read-out: Pigweed, Redroot damage rating; for pest or weed control at 62.5 g/ha: 62.5 g ai/ha, read-out: Pigweed, Redroot damage rating (100=total damage to plant; 0=no damage to plant); for pest or weed control at 62.5 g/ha / pest or weed control at 250 g/ha: evaluated after 13 days; for pest or weed control at 250 g/ha: 250 g ai/ha, read-out: damage to plant, Pigweed, Redroot (100=total damage to plant; 0=no damage to plant)
In short: as §1

[6] = test system: velvetleaf (Abutilon theophrasti); test: Test G Post-Emergence Protocol; details: Abutilon theophrasti, post-emergence, 312 h; for pest or weed control at 15.625 g/ha: 15.625 g ai/ha, evaluated after 13 days (100=total damage to plant; 0=no damage to plant), read-out: Velvetleaf damage rating; for pest or weed control at 62.5 g/ha: 62.5 g ai/ha, read-out: Velvetleaf damage rating (100=total damage to plant; 0=no damage to plant); for pest or weed control at 62.5 g/ha / pest or weed control at 250 g/ha: evaluated after 13 days; for pest or weed control at 250 g/ha: 250 g ai/ha, read-out: damage to plant, Velvetleaf (100=total damage to plant; 0=no damage to plant)
In short: as §1

[7] = test system: barnyardgrass (Echinochloa crus-galli); test: Test G Pre-Emergence Protocol; details: Echinochloa crus-galli, pre-emergence, 312 h, evaluated after 13 days; for pest or weed control at 15.625 g/ha: 15.625 g ai/ha, read-out: Barnyard grass damage rating (100=total damage to plant; 0=no damage to plant); for pest or weed control at 62.5 g/ha: 62.5 g ai/ha, 100=total damage to plant, 0=no damage to plant, read-out: plant damage rating, Barnyardgrass; for pest or weed control at 250 g/ha: 250 g ai/ha, read-out: Barnyardgrass damage rating (100=total damage to plant; 0=no damage to plant)
In short: (§2)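 Seeds were sown in standard soil and kept one day in a glasshouse (24/16° C day/night, 14 h light, 65% humidity), then sprayed with compound in acetone/water (50:50) containing 0.5% Tween 20 at 15.625, 62.5 or 250 g/ha. Damage was scored after 13 days (0 = none, 100 = total).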

[8] = test system: ivy-leaved morning glory (Ipomoea hederacea); test: Test G Pre-Emergence Protocol; details: Ipomoea, pre-emergence, 312 h, evaluated after 13 days; for pest or weed control at 15.625 g/ha: 15.625 g ai/ha, read-out: Morning-glory, Ivy-leaved damage rating (100=total damage to plant; 0=no damage to plant); for pest or weed control at 62.5 g/ha: 62.5 g ai/ha, 100=total damage to plant, 0=no damage to plant, read-out: plant damage rating, Morningglory, Ivy-leaved; for pest or weed control at 250 g/ha: 250 g ai/ha, read-out: Morningglory, Ivy-leaved damage rating (100=total damage to plant; 0=no damage to plant)
In short: as §2

[9] = test system: giant foxtail (Setaria faberi); test: Test G Pre-Emergence Protocol; details: Setaria faberi, pre-emergence, 312 h, evaluated after 13 days; for pest or weed control at 15.625 g/ha: 15.625 g ai/ha; for pest or weed control at 15.625 g/ha / pest or weed control at 250 g/ha: read-out: Foxtail, Giant damage rating (100=total damage to plant; 0=no damage to plant); for pest or weed control at 62.5 g/ha: 62.5 g ai/ha, 100=total damage to plant, 0=no damage to plant, read-out: plant damage rating, Foxtail, Giant; for pest or weed control at 250 g/ha: 250 g ai/ha
In short: as §2

corn (Zea mays) [10] = test: Test G Pre-Emergence Protocol; details: Zea mays, pre-emergence, 312 h, evaluated after 13 days; for plant injury at 15.625 g/ha: 15.625 g ai/ha; for plant injury at 15.625 g/ha / plant injury at 250 g/ha: read-out: Corn damage rating (100=total damage to plant; 0=no damage to plant); for plant injury at 62.5 g/ha: 62.5 g ai/ha, 100=total damage to plant, 0=no damage to plant, read-out: plant damage rating, Corn; for plant injury at 250 g/ha: 250 g ai/ha
In short: as §2

[11] = test system: redroot pigweed (Amaranthus retroflexus); test: Test G Pre-Emergence Protocol; details: Amaranthus retroflexus, pre-emergence, 312 h, evaluated after 13 days; for pest or weed control at 15.625 g/ha: 15.625 g ai/ha; for pest or weed control at 15.625 g/ha / pest or weed control at 250 g/ha: read-out: Pigweed, Redroot damage rating (100=total damage to plant; 0=no damage to plant); for pest or weed control at 62.5 g/ha: 62.5 g ai/ha, 100=total damage to plant, 0=no damage to plant, read-out: plant damage rating, Pigweed, Redroot; for pest or weed control at 250 g/ha: 250 g ai/ha
In short: as §2

[12] = test system: velvetleaf (Abutilon theophrasti); test: Test G Pre-Emergence Protocol; details: Abutilon theophrasti, pre-emergence, 312 h, evaluated after 13 days; for pest or weed control at 15.625 g/ha: 15.625 g ai/ha; for pest or weed control at 15.625 g/ha / pest or weed control at 250 g/ha: read-out: Velvetleaf damage rating (100=total damage to plant; 0=no damage to plant); for pest or weed control at 62.5 g/ha: 62.5 g ai/ha, 100=total damage to plant, 0=no damage to plant, read-out: plant damage rating, Velvetleaf; for pest or weed control at 250 g/ha: 250 g ai/ha
In short: as §2

Row | Structure (SMILES) | pest or weed control at 15.625 g/ha [1] [%] | pest or weed control at 62.5 g/ha [1] [%] | pest or weed control at 250 g/ha [1] [%] | pest or weed control at 15.625 g/ha [2] [%] | pest or weed control at 62.5 g/ha [2] [%] | pest or weed control at 250 g/ha [2] [%] | pest or weed control at 15.625 g/ha [3] [%] | pest or weed control at 62.5 g/ha [3] [%] | pest or weed control at 250 g/ha [3] [%] | plant injury at 15.625 g/ha (corn (Zea mays) [4]) [%] | plant injury at 62.5 g/ha (corn (Zea mays) [4]) [%] | plant injury at 250 g/ha (corn (Zea mays) [4]) [%] | pest or weed control at 15.625 g/ha [5] [%] | pest or weed control at 62.5 g/ha [5] [%] | pest or weed control at 250 g/ha [5] [%] | pest or weed control at 15.625 g/ha [6] [%] | pest or weed control at 62.5 g/ha [6] [%] | pest or weed control at 250 g/ha [6] [%] | pest or weed control at 15.625 g/ha [7] [%] | pest or weed control at 62.5 g/ha [7] [%] | also measured
1 | Cc1ccc(NC(=O)[C@@H]2C(=O)N(C)C[C@H]2c2ccc(C(F)(F)F)cc2)c(F)c1 (racemic) [Compound 1591] | 0 | 30 | 50 | 0 | 10 | 10 | 0 | 70 | 80 | 0 | 0 | 10 | 0 | 10 | 10 | 0 | 0 | 10 | 0 | 50 | pest or weed control at 250 g/ha [7]: 70%; pest or weed control at 15.625 g/ha [8]: 0%; pest or weed control at 62.5 g/ha [8]: 0%; pest or weed control at 250 g/ha [8]: 0%; pest or weed control at 15.625 g/ha [9]: 0%; pest or weed control at 62.5 g/ha [9]: 70%; pest or weed control at 250 g/ha [9]: 80%; plant injury at 15.625 g/ha (corn (Zea mays) [10]): 0%; plant injury at 62.5 g/ha (corn (Zea mays) [10]): 10%; plant injury at 250 g/ha (corn (Zea mays) [10]): 0%; pest or weed control at 15.625 g/ha [11]: 0%; pest or weed control at 62.5 g/ha [11]: 0%; pest or weed control at 250 g/ha [11]: 0%; pest or weed control at 15.625 g/ha [12]: 0%; pest or weed control at 62.5 g/ha [12]: 0%; pest or weed control at 250 g/ha [12]: 10%
2 | CN1C[C@@H](c2ccc(C(F)(F)F)cc2)[C@H](C(=O)Nc2ccccn2)C1=O (racemic) [Compound 1596] | 0 | 30 | 70 | 0 | 10 | 20 | 0 | 60 | 80 | 0 | 0 | 10 | 0 | 10 | 40 | 0 | 0 | 10 | 0 | 0 | pest or weed control at 250 g/ha [7]: 70%; pest or weed control at 15.625 g/ha [8]: 0%; pest or weed control at 62.5 g/ha [8]: 10%; pest or weed control at 250 g/ha [8]: 100%; pest or weed control at 15.625 g/ha [9]: 0%; pest or weed control at 62.5 g/ha [9]: 40%; pest or weed control at 250 g/ha [9]: 80%; plant injury at 15.625 g/ha (corn (Zea mays) [10]): 0%; plant injury at 62.5 g/ha (corn (Zea mays) [10]): 0%; plant injury at 250 g/ha (corn (Zea mays) [10]): 0%; pest or weed control at 15.625 g/ha [11]: 0%; pest or weed control at 62.5 g/ha [11]: 20%; pest or weed control at 250 g/ha [11]: 60%; pest or weed control at 15.625 g/ha [12]: 0%; pest or weed control at 62.5 g/ha [12]: 0%; pest or weed control at 250 g/ha [12]: 20%
